Measured values as given in patent publication US5686466A, “Tricyclic condensed heterocyclic compounds their production and use” (priority 1993, dated 1997).
Structures can show the parent of a compound that is named as a salt.

Assays:
Acetylcholinesterase = target: T1, Acetylcholinesterase (Rattus norvegicus, UniProt P37136); assay: cholinesterase inhibitory activity using (acetyl-[^3 H])-acetylcholine, S1 fraction of rat cerebral cortex homogenate; assay type: biochemical, male Wistar rat; settings: 30 min incubation
T1 construct: Using the S1 fraction of a male Wistar rat cerebral cortex homogenate as a source of cholinesterase; from tissue; host or cells: male Wistar rat cerebral cortex homogenate, S1 fraction
Description: The cholinesterase inhibitory activity of the compound of the present invention was tested, using (acetyl-[^3 H])-acetylcholine. Using the S1 fraction of a male Wistar rat cerebral cortex homogenate as a source of cholinesterase, (acetyl-[^3 H])-acetylcholine, as a substrate, and the test compound, as a sample, were incubated for 30 minutes. After the reaction was terminated, a toluene scintillator was added and the reaction mixture was shaken to migrate the [^3 H]-acetic acid resulting from the reaction to the toluene layer, where radioactivity was counted using a liquid scintillation counter to determine the cholinesterase inhibitory activity.
The sample's cholinesterase inhibitory activity was expressed by 50% inhibitory concentration (IC50).

[1] = test system: [^3 H]-norepinephirine(NE) uptake; assay: monoamine uptake inhibition, [^3 H]-norepinephirine (NE), crude synaptosomal preparations of cerebral cortex and hippocampus; assay type: biochemical; settings: [^3 H]-NE 11 nM; 37° C; rat synaptosomes; read-out: Monoamine Reuptake Inhibitory Activity IC50, NE
Description: (§1) Effects of the compound of this invention on monoamine uptake were investigated using [^3 H]-norepinephirine(NE) and [3H]-serotonin (5-HT). Rats were sacrificed by decapitation. The cerebral cortex and hippocampus were removed and homogenized in 10-15 volumes (W/V) of an ice-cold medium containing 0.32M sucrose. Crude synaptosomal preparations (P2) were isolated after differential centrifugation at 1000×g for 10 min and 20,000×g for 30 min at 4° C. Synaptosomal membranes were suspended in Krebs-Ringer bicarbonate (KRB) solution (116 mM NaCl, 4.8 mM KCl, 1.3 mM CaCl2, 1.2 mM MgSO4, 1.2 mM NaH2 PO4, 25 mM NaHCO3, 0.1 mM EDTA-2Na, 11.1 mM D-glucose, 0.11 mM L-ascorbic acid, 0.01 mM pargyline). Synaptosomal membrane suspension (900 μl) was preincubated with the test compound dissolved in DMSO solution at 37° C. for 5 min. The reaction was initiated by addition of 100 μl of [^3 H]-NE (11 nM in final concentration) or [^3 H]-HT (10 nM in final concentration). Five minutes later, the reaction was stopped by the addition of 4 ml of ice-cold KRB and the reaction mixture was filtered through Whatman CF/B. Filters were washed twice with 4 ml of KRB and the radioactivity bound was counted with liquid scintillant. Imipramine was used as positive control.

[2] = test system: [3H]-serotonin (5-HT) uptake; assay: monoamine uptake inhibition, [3H]-serotonin (5-HT), crude synaptosomal preparations of cerebral cortex and hippocampus; assay type: biochemical; settings: [^3 H]-HT 10 nM; 37° C; rat synaptosomes; read-out: Monoamine Reuptake Inhibitory Activity IC50, 5-HT
Description: as §1

T1 sequence (P37136 32-614): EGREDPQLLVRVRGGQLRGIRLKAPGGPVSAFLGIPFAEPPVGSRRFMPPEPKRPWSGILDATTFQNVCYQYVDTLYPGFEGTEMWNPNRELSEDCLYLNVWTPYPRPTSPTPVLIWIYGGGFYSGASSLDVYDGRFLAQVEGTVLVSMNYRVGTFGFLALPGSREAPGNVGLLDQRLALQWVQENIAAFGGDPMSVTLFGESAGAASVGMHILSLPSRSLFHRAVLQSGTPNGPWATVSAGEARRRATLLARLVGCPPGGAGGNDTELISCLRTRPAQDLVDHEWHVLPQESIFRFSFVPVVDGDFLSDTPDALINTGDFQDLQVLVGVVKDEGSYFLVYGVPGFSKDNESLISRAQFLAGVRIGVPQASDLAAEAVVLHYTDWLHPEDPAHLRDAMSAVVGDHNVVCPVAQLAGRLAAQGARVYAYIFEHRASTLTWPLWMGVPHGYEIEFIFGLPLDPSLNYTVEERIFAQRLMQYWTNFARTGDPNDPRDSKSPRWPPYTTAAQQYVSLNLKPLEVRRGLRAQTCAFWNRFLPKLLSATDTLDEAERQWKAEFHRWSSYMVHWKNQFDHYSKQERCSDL

SMILES | IC50 (Acetylcholinesterase) [nM] | IC50 [1] [nM] | IC50 [2] [nM]
O=CN1Cc2cc(C(=O)CCN3CCN(Cc4ccccc4)CC3)ccc2Oc2ccccc21 [17-8] | 47 |  | 
Cc1ccc(CN2CCC(CCC(=O)c3cc4c5c(c3)CCN5C(=O)CC4)CC2)cc1 [30-47] | 19.5 |  | 
O=C(CCC1CCN(Cc2ccc([N+](=O)[O-])cc2)CC1)c1cc2c3c(c1)CCN3C(=O)CC2 [30-53] | 25.4 |  | 
COc1ccc(CN2Cc3ccccc3-c3ccc(C(=O)CCN4CCN(Cc5ccccc5)CC4)cc3C2)cc1 [34-2] | 20 |  | 
O=C(CCN1CCN(Cc2ccccc2Cl)CC1)c1cc2c3c(c1)CC(=O)N3CCC2 [30-3] | 10.9 |  | 
Cc1cccc(CN2CCC(CCC(=O)c3cc4c5c(c3)CCN5C(=O)CC4)CC2)c1 [30-46] | 0.2 |  | 
O=C(CCN1CCN(Cc2ccccc2F)CC1)c1cc2c3c(c1)CCN3C(=O)CC2 [30-24] | 1.5 |  | 
O=C(CCN1CCN(Cc2ccccc2)CC1)c1cc2c3c(c1)CCN3C(=O)CC2 [17-1] | 3 |  | 
CN1CC2CCCc3c(C(=O)CCC4CCN(Cc5ccccc5)CC4)ccc1c32 (stereo not drawn) [16-1] | 154 |  | 
Cc1ccc(C)c(CN2CCC(CCC(=O)c3cc4c5c(c3)CCN5C(=O)CC4)CC2)c1 [30-56] | 18.3 |  | 
Cc1cccc(CN2CCN(CCC(=O)c3cc4c5c(c3)CC(=O)N5CCC4)CC2)c1 [30-1] | 28.7 | 4600 | 95.6
O=C(CCC1CCN(Cc2ccccc2)CC1)c1ccc2c3c(cccc13)CN(Cc1ccccc1)C2 [37-2] | 184 |  | 
O=C(CCC1CCN(Cc2ccccc2Cl)CC1)c1cc2c3c(c1)CCN3C(=O)CC2 [30-42] | 0.54 |  | 
O=C(CCN1CCN(Cc2ccc(F)cc2)CC1)c1cc2c3c(c1)CCN3C(=O)CC2 [30-26] | 4.4 |  | 
O=C(CCC1CCN(Cc2ccc(O)cc2)CC1)c1cc2c3c(c1)CCN3C(=O)CC2 [30-60] | 0.078 |  | 
O=C(CCN1CCN(Cc2ccc(F)cc2)CC1)c1cc2c3c(c1)CC(=O)N3CCC2 [30-12] | 23.9 |  | 
COc1ccccc1CN1CCN(CCC(=O)c2cc3c4c(c2)CC(=O)N4CCC3)CC1 [30-13] | 130 |  | 
O=C(CCN1CCN(Cc2ccccc2)CC1)c1ccc2c(c1)CN(Cc1ccccc1)Cc1ccccc1-2 [34-1] | 39.3 |  | 
Cc1ccc(CN2CCN(CCC(=O)c3cc4c5c(c3)CCN5C(=O)CC4)CC2)cc1C [30-28] |  | 2810 | 61.5
O=C(CCC1CCN(Cc2ccccc2F)CC1)c1cc2c3c(c1)CCN3C(=O)CC2 [30-39] | 0.5 |  | 
O=C(CCN1CCN(Cc2ccccc2)CC1)c1cc2c3c(c1)CCC(=O)N3CCC2 [17-6] | 15.1 |  | 
O=C(CCN1CCN(Cc2ccc3c(c2)OCO3)CC1)c1cc2c3c(c1)CC(=O)N3CCC2 [31-1] |  | 6180 | 46.3
O=C(CCN1CCN(Cc2cccc(Cl)c2)CC1)c1cc2c3c(c1)CCN3C(=O)CC2 [30-22] | 6.2 | 795 | 60.1

SMILES | IC50 (Acetylcholinesterase) [nM] | IC50 [1] [nM] | IC50 [2] [nM]
Cc1ccccc1CN1CCC(CCC(=O)c2cc3c4c(c2)CCN4C(=O)CC3)CC1 [30-45] | 0.304 |  | 
CCC(=O)N1CC2CCCc3c(C(=O)CCC4CCN(Cc5ccccc5)CC4)ccc1c32 (stereo not drawn) [20-1] | 182 |  | 
O=C(CCN1CCC(Cc2ccccc2)CC1)c1cc2c3c(c1)CCN3C(=O)CC2 [31-4] | 188 | 160 | 20.7
O=C(CCN1CCN(Cc2ccccc2)CC1)c1ccc2c(c1)CNc1ccccc1C2 [32-2] | 115 |  | 
O=C(CCN1CCC(Cc2ccccc2)CC1)c1ccc2c(c1)CN(C(=O)c1ccccc1)Cc1ccccc1-2 [34-8] |  | 197 | 363
CC1CC(=O)N2CCc3cc(C(=O)CCN4CCN(Cc5ccccc5)CC4)cc1c32 (stereo not drawn) [17-4] | 9.5 |  | 
O=C(CCC1CCN(Cc2cccc([N+](=O)[O-])c2)CC1)c1cc2c3c(c1)CCN3C(=O)CC2 [30-52] | 0.36 |  | 
Cc1ccc(CN2CCN(CCC(=O)c3cc4c5c(c3)CC(=O)N5CCC4)CC2)cc1C [30-8] |  | 643 | 60.7
O=C(CCC1CCN(Cc2ccccc2)CC1)c1ccc2c3c1CCCC3CN2 (stereo not drawn) [compound 4, 1-(1,2,2a,3,4,5-Hexahydrobenz[cd]indol-6-yl)-3-[1-(phenylmethyl)piperidin-4-yl]-1-propanone dihydrochloride] | 91.8 | 347 | 601
N#Cc1ccccc1CN1CCC(CCC(=O)c2cc3c4c(c2)CCN4C(=O)CC3)CC1 [30-61] | 15.6 |  | 
O=CN1Cc2cc(C(=O)CCN3CCN(Cc4ccccc4)CC3)ccc2Cc2ccccc21 [17-7] | 33 |  | 
O=C(CCN1CCN(Cc2ccccc2)CC1)c1ccc2c3c1CCCC3CN2 (stereo not drawn) [compound 2, 1-(1,2,2a,3,4,5-Hexahydrobenz[cd]indol-6-yl)-3-[1-(phenylmethyl)piperazin-4-yl]-1-propanone trihydrochloride] |  | 420 | 594
O=C(CCC1CCN(Cc2cccc(F)c2)CC1)c1cc2c3c(c1)CCN3C(=O)CC2 [30-40] | 0.092 |  | 
CC(=O)N1Cc2ccccc2-c2ccc(C(=O)CCN3CCN(Cc4ccccc4)CC3)cc2C1 [34-3] | 171 |  | 
O=C(CCC1CCN(Cc2ccccc2)CC1)c1cc2c3c(c1)CCN3C(=O)CC2 [30-38] | 0.18 |  | 
O=C(CCN1CCN(Cc2ccccc2O)CC1)c1cc2c3c(c1)CC(=O)N3CCC2 [30-16] | 5.8 |  | 
O=C(CCN1CCN(Cc2ccccc2)CC1)c1ccc2c(c1)CNc1ccccc1O2 [32-3] | 59 |  | 
O=C(CCC1CCN(Cc2cccc(Cl)c2)CC1)c1cc2c3c(c1)CCN3C(=O)CC2 [30-43] | 0.065 |  | 
Cc1cccc(CN2CCN(CCC(=O)c3cc4c5c(c3)CCN5C(=O)CC4)CC2)c1 [30-19] | 11.9 | 2820 | 66
O=C(CCN1CCN(Cc2cccc(F)c2)CC1)c1cc2c3c(c1)CC(=O)N3CCC2 [30-11] | 16.9 |  | 
O=C(CCC1CCN(Cc2ccc(Cl)cc2)CC1)c1cc2c3c(c1)CCN3C(=O)CC2 [30-44] | 59.9 |  | 
COc1ccccc1CN1CCN(CCC(=O)c2cc3c4c(c2)CCN4C(=O)CC3)CC1 [30-32] | 91.1 |  | 
O=C(CCN1CCN(Cc2ccc([N+](=O)[O-])cc2)CC1)c1cc2c3c(c1)CC(=O)N3CCC2 [30-36] |  | 7480 | 46.8

SMILES | IC50 (Acetylcholinesterase) [nM] | IC50 [1] [nM] | IC50 [2] [nM]
Cc1ccc(CN2CCC(CCC(=O)c3cc4c5c(c3)CCN5C(=O)CC4)CC2)c(C)c1 [30-54] | 60.9 |  | 
O=CN1Cc2ccccc2-c2ccc(C(=O)CCN3CCC(Cc4ccccc4)CC3)cc2C1 [31-11] |  | 515 | 69.5
O=C(CCN1CCN(Cc2cccc([N+](=O)[O-])c2)CC1)c1cc2c3c(c1)CCN3C(=O)CC2 [30-29] | 29.3 |  | 
O=C(CCN1CCN(Cc2ccccc2)CC1)c1ccc2c(c1)C1CCCCC1N2 (stereo not drawn) [19-1] |  | 328 | 1670
O=C(CCC1CCN(Cc2cccc(O)c2)CC1)c1cc2c3c(c1)CCN3C(=O)CC2 [30-59] | 1.12 |  | 
O=C(CCC1CCN(Cc2ccccc2)CC1)c1cc2c3c(c1)CC(=O)N3CCC2 [30-34] | 0.5 |  | 
O=C(CCN1CCN(Cc2ccccc2F)CC1)c1cc2c3c(c1)CC(=O)N3CCC2 [30-10] | 18.9 |  | 
O=C(CCN1CCN(Cc2cccc(Cl)c2)CC1)c1cc2c3c(c1)CC(=O)N3CCC2 [30-4] | 43 |  | 
O=C(CCN1CCC(Cc2ccccc2)CC1)c1cc2c3c(c1)CC(=O)N3CCC2 [31-2] |  | 73.8 | 8.79
Cc1ccccc1CN1CCN(CCC(=O)c2cc3c4c(c2)CCN4C(=O)CC3)CC1 [30-18] | 24.9 |  | 
O=C(CCN1CCN(Cc2ccccc2)CC1)c1cc2c3c(c1)CC(=O)N3CCCC2 [17-3] | 17.2 |  | 
O=C(CCC1CCN(Cc2ccccc2O)CC1)c1cc2c3c(c1)CCN3C(=O)CC2 [30-58] | 0.12 |  | 
CCc1ccccc1CN1CCN(CCC(=O)c2cc3c4c(c2)CC(=O)N4CCC3)CC1 [30-6] |  | 5960 | 86.3
CN1c2ccc(C(=O)CCC3CCN(Cc4ccccc4)CC3)cc2C2CCCCC21 (stereo not drawn) [37-4] | 136 |  | 
O=C(CCN1CCN(Cc2cccc([N+](=O)[O-])c2)CC1)c1cc2c3c(c1)CC(=O)N3CCC2 [30-35] | 67.9 |  | 
CN(C)CCCN1c2ccccc2CCc2ccccc21 [Imipramine, reference compound] |  | 1120 | 63
O=CN1Cc2cc(C(=O)CCN3CCN(Cc4ccccc4)CC3)ccc2CCc2ccccc21 [17-10] | 96.8 |  | 
O=C(CCN1CCN(Cc2ccccc2)CC1)c1ccc2c(c1)CN(C(=O)c1ccccc1)Cc1ccccc1-2 [34-4] |  | 456 | 969
O=C(CCC1CCN(Cc2ccc(F)cc2)CC1)c1cc2c3c(c1)CCN3C(=O)CC2 [30-41] | 0.47 |  | 
COc1ccccc1CN1CCC(CCC(=O)c2cc3c4c(c2)CCN4C(=O)CC3)CC1 [30-48] | 17.1 |  | 
COc1ccc(C(=O)N2Cc3ccccc3-c3ccc(C(=O)CCN4CCN(Cc5ccccc5)CC4)cc3C2)cc1 [34-5] | 31.6 |  | 
O=C(CCN1CCN(Cc2ccccc2)CC1)c1cc2c3c(c1)CC(=O)N3CCC2 [17-2] | 7.6 |  | 
